“And” between values parts separate entries of the source, which are not always exact repeats. Equal entries are not always repeated. Toxic doses and inconclusive results are not listed.

The test system of this assay is L1210 leukemia ip in BDF1 mice, survival T/C. As to the kind of experiment: NCI In Vivo Anticancer Drug Screen. Data for tumor model L1210 Leukemia (intraperitoneal) in B6D2F1 (BDF1) mice. Conditions: endpoint: mean survival time, higher = longer survival. Summed up: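 Each compound was tested against a transplantable tumor grown in mice. The endpoint was survival, with treated animals benchmarked against vehicle controls as a simple ratio.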

Where [1] appears, read: dose: 50.0 mg/kg/injection, schedule: Q01DX001 (ip), vehicle: Klucel (hydroxypropylcellulose) (HPC).
Where [2] appears, read: dose: 100.0 mg/kg/injection, schedule: Q01DX001 (ip), vehicle: saline.
[3] abbreviates: dose: 200.0 mg/kg/injection, schedule: Q01DX001 (ip), vehicle: saline.
Where [4] appears, read: dose: 400.0 mg/kg/injection, schedule: Q01DX001 (ip), vehicle: saline.

As to `O=C1NC(=O)C2C3C=CC(C3)C12` (stereo not drawn), the T/C was 101 % of control under setting [1]; 99 % of control (dose: 100.0 mg/kg/injection, schedule: Q01DX001 (ip), vehicle: Klucel (hydroxypropylcellulose) (HPC)); 101 % of control (dose: 200.0 mg/kg/injection, schedule: Q01DX001 (ip), vehicle: Klucel (hydroxypropylcellulose) (HPC)).

As for `CCOC(=O)c1cnc(SC)nc1Nc1cccc(C(F)(F)F)c1`, the T/C reads like this: (dose: 50.0 mg/kg/injection, schedule: Q01DX001 (ip), vehicle: gum acacia) 96 % of control; (dose: 87.0 mg/kg/injection, schedule: Q01DX009 (ip), vehicle: gum acacia) 100 % of control; (dose: 100.0 mg/kg/injection, schedule: Q01DX001 (ip), vehicle: gum acacia) 89 % of control and 90 % of control; (dose: 175.0 mg/kg/injection, schedule: Q01DX009 (ip), vehicle: gum acacia) 99 % of control; (dose: 200.0 mg/kg/injection, schedule: Q01DX001 (ip), vehicle: gum acacia) 89 % of control; (dose: 350.0 mg/kg/injection, schedule: Q01DX009 (ip), vehicle: gum acacia) 94 % of control. Also, the T/C (dose: 400.0 mg/kg/injection, schedule: Q01DX001 (ip), vehicle: gum acacia) is 99 % of control.

Turning to `N#Cc1ccc(Br)cc1[N+](=O)[O-]`, the T/C (dose: 6.25 mg/kg/injection, schedule: Q01DX009 (ip), vehicle: Klucel (hydroxypropylcellulose) (HPC)) was 103 % of control; the T/C (dose: 100.0 mg/kg/injection, schedule: Q04DX003 (ip), vehicle: Klucel (hydroxypropylcellulose) (HPC)) is 89 % of control; the T/C (dose: 200.0 mg/kg/injection, schedule: Q04DX003 (ip), vehicle: Klucel (hydroxypropylcellulose) (HPC)) is 86 % of control.

Regarding `CCC(CC)c1cccc2c(C(CC)CC)cccc12`, the T/C under setting [2] is 98 % of control, the T/C under setting [3] is 96 % of control and the T/C under setting [4] was 96 % of control.

Take `CCOC(=O)C(Cc1ccc2ccccc2n1)C(C)=O` (stereo not drawn): the T/C reads like this: (dose: 50.0 mg/kg/injection, schedule: Q01DX009 (ip), vehicle: DMSO) 86 % of control; (dose: 100.0 mg/kg/injection, schedule: Q01DX009 (ip), vehicle: DMSO) 102 % of control.

Take `CC1(C)Cc2c(OC(N)=O)cccc2O1`: the T/C was 102 % of control (dose: 25.0 mg/kg/injection, schedule: Q01DX001 (ip), vehicle: Klucel (hydroxypropylcellulose) (HPC)) and 98 % of control under setting [1].

Consider `Oc1ccc(N=C/C=C/c2ccccc2)cc1`, for which the T/C (dose: 100.0 mg/kg/injection, schedule: Q01DX001 (ip), vehicle: carboxymethylcellulose (CMC)) was 86 % of control; the T/C (dose: 200.0 mg/kg/injection, schedule: Q01DX001 (ip), vehicle: carboxymethylcellulose (CMC)) was 89 % of control; the T/C (dose: 400.0 mg/kg/injection, schedule: Q01DX001 (ip), vehicle: carboxymethylcellulose (CMC)) is 91 % of control.

With `[B]N1C(C)=CC=CC1C` (stereo not drawn), the T/C is 92 % of control (dose: 50.0 mg/kg/injection, schedule: Q01DX009 (ip), vehicle: saline with Tween-80); 92 % of control (dose: 100.0 mg/kg/injection, schedule: Q01DX009 (ip), vehicle: saline with Tween-80); 89 % of control (dose: 200.0 mg/kg/injection, schedule: Q01DX009 (ip), vehicle: saline with Tween-80).

Consider `CSCCOC(=O)C1C2CCC(O2)C1C(=O)O` (stereo not drawn), for which, where the note is “dose: 12.5 mg/kg/injection, schedule: Q04DX003 (ip), vehicle: Klucel (hydroxypropylcellulose) (HPC)”, the T/C was 104 % of control.

For `CC(=O)C(=Cc1c[nH]c2ccccc12)C(C)=O`, the T/C (dose: 50.0 mg/kg/injection, schedule: Q01DX009 (ip), vehicle: water) was 98 % of control; the T/C (dose: 100.0 mg/kg/injection, schedule: Q01DX009 (ip), vehicle: water) was 112 % of control; the T/C (dose: 100.0 mg/kg/injection, schedule: Q04DX003 (ip), vehicle: water) was 106 % of control; the T/C (dose: 200.0 mg/kg/injection, schedule: Q01DX009 (ip), vehicle: water) was 98 % of control; the T/C (dose: 200.0 mg/kg/injection, schedule: Q04DX003 (ip), vehicle: water) was 103 % of control; the T/C (dose: 400.0 mg/kg/injection, schedule: Q01DX009 (ip), vehicle: water) was 95 % of control. In addition, where the note is “dose: 400.0 mg/kg/injection, schedule: Q04DX003 (ip), vehicle: water”, the T/C is 104 % of control.

For `NNP(=O)(c1ccccc1)c1ccccc1`, the T/C by setting is: under setting [2], 108 % of control; under setting [3], 102 % of control; under setting [4], 102 % of control.

Take `CCCCCCCOC(CN)C(Cl)(Cl)Cl` (stereo not drawn): the T/C reads like this: (dose: 12.5 mg/kg/injection, schedule: Q01DX001 (ip), vehicle: saline with Tween-80) 104 % of control; (dose: 12.5 mg/kg/injection, schedule: Q01DX009 (ip), vehicle: saline with Tween-80) 100 % of control and 104 % of control; (dose: 25.0 mg/kg/injection, schedule: Q01DX001 (ip), vehicle: saline with Tween-80) 100 % of control; (dose: 25.0 mg/kg/injection, schedule: Q01DX009 (ip), vehicle: saline with Tween-80) 97 % of control and 91 % of control; (dose: 25.0 mg/kg/injection, schedule: Q04DX002 (ip), vehicle: saline with Tween-80) 103 % of control and 108 % of control; (dose: 50.0 mg/kg/injection, schedule: Q01DX001 (ip), vehicle: saline with Tween-80) 94 % of control. The T/C (dose: 50.0 mg/kg/injection, schedule: Q04DX002 (ip), vehicle: saline with Tween-80) was 103 % of control and 105 % of control.

Consider `O=C(O)C(Cc1ccccc1)NS(=O)(=O)Cc1ccccc1` (stereo not drawn), for which the T/C was 100 % of control (dose: 100.0 mg/kg/injection, schedule: Q01DX001 (ip), vehicle: other); 96 % of control (dose: 100.0 mg/kg/injection, schedule: Q04DX003 (ip), vehicle: other); 102 % of control (dose: 200.0 mg/kg/injection, schedule: Q01DX001 (ip), vehicle: other); 93 % of control (dose: 200.0 mg/kg/injection, schedule: Q04DX003 (ip), vehicle: other); 100 % of control (dose: 400.0 mg/kg/injection, schedule: Q01DX001 (ip), vehicle: other); 93 % of control (dose: 400.0 mg/kg/injection, schedule: Q04DX003 (ip), vehicle: other).

For the compound `Cc1cccc2c(Nc3ccc(NS(C)(=O)=O)cc3)c3ccc([N+](=O)[O-])cc3nc12`, the T/C (dose: 4.8 mg/kg/injection, schedule: Q01DX009 (ip), vehicle: Klucel (hydroxypropylcellulose) (HPC)) was 151 % of control; the T/C (dose: 9.5 mg/kg/injection, schedule: Q01DX009 (ip), vehicle: Klucel (hydroxypropylcellulose) (HPC)) was 176 % of control; the T/C (dose: 10.0 mg/kg/injection, schedule: Q01DX009 (sc), vehicle: saline) was 107 % of control; the T/C (dose: 19.0 mg/kg/injection, schedule: Q01DX009 (ip), vehicle: Klucel (hydroxypropylcellulose) (HPC)) was 154 % of control; the T/C (dose: 20.0 mg/kg/injection, schedule: Q01DX009 (sc), vehicle: saline) is 121 % of control; the T/C (dose: 40.0 mg/kg/injection, schedule: Q01DX009 (sc), vehicle: saline) is 123 % of control. In addition, the T/C was 152 % of control (dose: 80.0 mg/kg/injection, schedule: Q01DX009 (sc), vehicle: saline); 102 % of control (dose: 178.0 mg/kg/injection, schedule: Q01DX001 (ip), vehicle: saline); 97 % of control (dose: 267.0 mg/kg/injection, schedule: Q01DX001 (ip), vehicle: saline); 103 % of control under setting [4].

Take `CCOC(=O)C(Br)c1cccc(OC)c1` (stereo not drawn): the T/C (dose: 100.0 mg/kg/injection, schedule: Q01DX009 (ip), vehicle: saline sonified) was 107 % of control; the T/C (dose: 100.0 mg/kg/injection, schedule: Q04DX003 (ip), vehicle: saline sonified) was 117 % of control; the T/C (dose: 132.0 mg/kg/injection, schedule: Q04DX003 (ip), vehicle: saline sonified) was 104 % of control; the T/C (dose: 200.0 mg/kg/injection, schedule: Q01DX009 (ip), vehicle: saline sonified) was 96 % of control; the T/C (dose: 200.0 mg/kg/injection, schedule: Q04DX003 (ip), vehicle: saline sonified) was 96 % of control; the T/C (dose: 300.0 mg/kg/injection, schedule: Q04DX003 (ip), vehicle: saline sonified) was 89 % of control. In addition, the T/C (dose: 400.0 mg/kg/injection, schedule: Q01DX009 (ip), vehicle: saline sonified) is 98 % of control and the T/C (dose: 400.0 mg/kg/injection, schedule: Q04DX003 (ip), vehicle: saline sonified) was 106 % of control.
